Measurements as given in patent publication US11883426B2, “Treatment for methamphetamine cardiovascular disease” (priority 2020, dated 2024).
Counter-ions that a name gives are not always drawn.

Experiments:
[1] = Sulfide release with Sugammadex in WT and CSE knockout mice; assay type: in vivo, mouse; details: single injection 0.2 mg/kg
Description: . Free sulfide was measured using 50 μl of plasma with MBB; whereas for detection of ALS and BSS, 50 μl of plasma was added separately into two sets of 4 mL BD vacutainer tubes. […]. Following a 30-min incubation on a nutator, the reaction liquid was removed, and the evolved sulfide gas subsequently trapped by adding 500 μl of 100 mM Tris-HCl buffer (pH 9.5, 0.1 mM DTPA) into the BD vacutainer tube and incubated again for 30 min on a nutator mixer. […]. Determination of ALS was made by reacting plasma samples with acidic phosphate buffer alone and subsequent trapping of evolved sulfide. Measurement of BSS was determined by subtracting the acid labile value from the total sulfide protocol containing TCEP reductant treatment under acidic conditions. […].
In clinical practice, sugammadex is administered at a dose of 4 mg/kg to up to 16 mg/kg for its current use. In the inventors' mice studies, the inventors used a single injection of 0.2 mg/kg for pharmacokinetic studies, which was a 20 to 80 times lower than the clinical usage of sugammadex.

[2] = Sulfide release with Sugammadex in human plasma; details: human blood
Description: (§1) . Free sulfide was measured using 50 μl of plasma with MBB; whereas for detection of ALS and BSS, 50 μl of plasma was added separately into two sets of 4 mL BD vacutainer tubes. […]. Following a 30-min incubation on a nutator, the reaction liquid was removed, and the evolved sulfide gas subsequently trapped by adding 500 μl of 100 mM Tris-HCl buffer (pH 9.5, 0.1 mM DTPA) into the BD vacutainer tube and incubated again for 30 min on a nutator mixer. […]. Determination of ALS was made by reacting plasma samples with acidic phosphate buffer alone and subsequent trapping of evolved sulfide. Measurement of BSS was determined by subtracting the acid labile value from the total sulfide protocol containing TCEP reductant treatment under acidic conditions. […]

CSE [3] = target: T1, CSE (Homo sapiens, UniProt P32929); assay: CSE activity with Sugammadex in human plasma; design: from tissue; host or cells: human blood plasma (lithium heparin)
Description: (§2) 2.9 Cystathionine γ-lyase (CSE) activity measurement: CSE activity was measured as previously reported. Plasma or tissue lysates were incubated with 2 mM cystathionine, 0.25 mM pyridoxal 5′-phosphate in 100 mM Tris-HCl buffer (pH 8.3) for 60 min at 37° C. 10% Trichloroacetic acid was added into reaction mixture. After centrifugation, the supernatant was mixed with 1% ninhydrin reagent and incubated for 5 min in a boiling-water bath. After heating, the solution was cooled on ice for 2 minutes and color reaction development measured 20 minutes at 455 nm using a spectrophotometer (Biotek). CSE activity was assessed by cystathionine consumption and enzyme activity expressed as fold change calculated from nanomoles of cystathionine consumed per mg of total protein per hour of incubation.

[4] = test system: CSE, p-eNOS and total eNOS; assay: Western blot of mouse skeletal muscle; assay type: in vivo; details: methamphetamine treated mice
Description: (§3) 2.4 ‘Binge and crash’ mouse methamphetamine model: Twelve-week-old male WT (C57BL6/J) male mice were used for these experiments. Mice were exposed to methamphetamine according to a known protocol that models binge methamphetamine exposure in humans. C57BL/6 male mice received 0-6 mg/kg methamphetamine (Methamphetamine HCl, Sigma-Aldrich, St. Louis, Mo.) through subcutaneous (s.c.) injection five days in a week for four weeks. Methamphetamine was dissolved in a sterile saline (Sigma-Aldrich) solution (0.9% w/v NaCl). Vehicle treated mice received the same volume of saline at all-time points for four weeks. Briefly, methamphetamine-exposed and saline-control mice were injected subcutaneously with methamphetamine or saline in a volume of 5 ml/kg with an insulin syringe. Alternating sites of injection were used to avoid any possible damage to tissue and possible stress of the animal. The dose of methamphetamine was escalated over the course of the first cycle, which occurs during the first week of injections (days 1-5) followed by three weeks of repeated cycles of meth injections (days 8-12, 15-19, and 22-26). Mice received 4 injections per day, 2 hours apart with doses of meth including 0, 1, 2, 3, 4, 5, and 6 mg/kg subcutaneously. At the end of the 4 weeks, mice were sacrificed by isoflurane overdose, plasma and tissue were harvested.
2.10 Western blot analysis: Mouse skeletal muscle tissues were homogenized in a solution containing 50 mM Tris buffer (pH 7.4), 2 mM EDTA, 5 mM EGTA, 0.1% SDS, a protease inhibitor cocktail (Roche, Indianapolis, Ind.), and phosphatase inhibitor cocktail type I and II (Sigma, Saint Louis, Mo.). Homogenates were centrifuged at 500×g for 15 min and supernatants were collected. Protein concentrations were analyzed using the Bradford protein assay (BIORAD, Hercules, Calif.). […] Chemiluminescent bands were detected and quantified using NIH Image J software.

NO [5] = assay: Total NO in plasma of human methamphetamine users; details: methamphetamine-users vs healthy controls
femoral artery = details: mouse, in vivo
H2S [6] = assay type: in vivo, mouse
skeletal muscle tissue = assay type: in vivo, mouse
H2S [7] = assay: Sulfide pools in plasma of human methamphetamine users; details: methamphetamine-users vs age matched healthy controls
Description: 2.6 Human blood collection: Human subjects were interviewed, and medical record data were collected for analysis of methamphetamine-use. Blood samples were collected from already-established catheterization into 6 mL BD vacutainer tubes with lithium heparin. Samples were transported to the lab within 15 min on ice and were centrifuged at 1500 RCF for 4 min at 4° C.
as §1

NO [8] = assay: NO metabolite measurements in mouse plasma and skeletal muscle; assay type: in vivo
CSE [9] = target: T1, CSE; assay: CSE enzyme activity in endothelial cells; assay type: cell-based; design: host or cells: HUVEC; details: HUVECs, 100 μM, 30 min, vs PBS control
Description: 2.2 Cell culture and treatments: Human umbilical vein endothelial cells (HUVECs) were purchased from Lifeline Cell Technology (Cat. No. FC-0044) and cultured in VascuLife® Basal Medium (Cat. No. LM-0002) supplemented with the appropriate LifeFactors® Kit (No. LL-0003). All cells were grown in tissue culture flasks at 37° C. and 5% CO2. HUVECs from passages 2-4 were used in the experiments.
as §2

CSE [10] = assay type: in vivo, mouse; details: skeletal muscle tissues of methamphetamine treated mice
superoxide = assay: Oxidative stress measurement (DHE staining) in skeletal muscle; assay type: in vivo, mouse; details: skeletal muscle sections, methamphetamine vs saline
Description: as §3, with “The dose of methamphetamine was escalated over the course of the first cycle, which occurs during the first week of injections (days 1-5) followed by three weeks of repeated cycles of meth injections (days 8-12, 15-19, and 22-26). Mice received 4 injections per day, 2 hours apart with doses of meth including 0, 1, 2, 3, 4, 5, and 6 mg/kg subcutaneously. At the end of the 4 weeks, mice were sacrificed by isoflurane overdose, plasma and tissue were harvested.” left out
2.12 Oxidative Stress measurement: Levels of oxidative stress were measured by staining skeletal muscle tissue sections with 5 μM Dihydroethidium (DHE; Sigma-Aldrich, CA USA) and visualized using a NIKON ECLIPSE Ti-E microscope (Nikon Instruments Inc., Melville, N.Y.) for image acquisition. […]

[11] = 4-week binge and crash methamphetamine
[12] = 4-week binge and crash methamphetamine vs controls
[13] = skeletal muscle, methamphetamine treated mice
[14] = skeletal muscle, methamphetamine treatment

T1 sequence (P32929 whole entry): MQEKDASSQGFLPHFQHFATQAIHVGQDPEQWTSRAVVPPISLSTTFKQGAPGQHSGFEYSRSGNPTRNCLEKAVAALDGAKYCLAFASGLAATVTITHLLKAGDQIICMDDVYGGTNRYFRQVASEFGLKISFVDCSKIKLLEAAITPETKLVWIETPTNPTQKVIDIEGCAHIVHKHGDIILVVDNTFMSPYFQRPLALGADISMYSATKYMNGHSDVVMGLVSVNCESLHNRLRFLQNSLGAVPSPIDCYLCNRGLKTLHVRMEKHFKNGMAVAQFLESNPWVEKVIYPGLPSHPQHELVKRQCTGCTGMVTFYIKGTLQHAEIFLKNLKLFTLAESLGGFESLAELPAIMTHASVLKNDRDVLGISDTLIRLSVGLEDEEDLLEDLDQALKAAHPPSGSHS

Structure (SMILES): O=C([O-])CCSC[C@@H]1OC2O[C@@H]3[C@@H](O)[C@H](O)C(O[C@@H]4[C@@H](O)[C@H](O)C(O[C@@H]5[C@@H](O)[C@H](O)C(O[C@@H]6[C@@H](O)[C@H](O)C(O[C@@H]7[C@@H](O)[C@H](O)C(O[C@@H]8[C@@H](O)[C@H](O)C(O[C@@H]9[C@@H](O)[C@H](O)C(O[C@@H]1[C@@H](O)[C@@H]2O)O[C@H]9CSCCC(=O)[O-])O[C@H]8CSCCC(=O)[O-])O[C@H]7CSCCC(=O)O)O[C@H]6CSCCC(=O)O)O[C@H]5CSCCC(=O)O)O[C@H]4CSCCC(=O)[O-])O[C@H]3CSCCC(=O)[O-].[Na+].[Na+].[Na+].[Na+].[Na+] [Sugammadex]
- plasma sulfide levels ([1]; CSE knockout mice): increases
- plasma sulfide levels ([1]; wild type mice): increases
- bound sulfane sulfur [2]: increases
- total sulfide levels [2]: increases
- plasma CSE activity (CSE [3]): increased

Structure (SMILES): CN[C@@H](C)Cc1ccccc1 [methamphetamine, Methamphetamine hydrochloride]
- CSE protein expression [4]: decreased expressions
- p-eNOS protein expression [4]: decreased expressions
- total eNOS protein [4]: no change
- total NO levels (NO [5]): trend of decreasing
- flow mediated vasodilation responses (femoral artery): significantly blunted
- mean blood flow velocity recovery after occlusion removal (femoral artery): significantly blunts
- reduction in plasma total sulfide (H2S [6]; [11]): 3 fold
- plasma acid-labile sulfide (H2S [6]; [12]): significant reduction
- plasma bound sulfane sulfur (H2S [6]; [12]): significant reduction
- eNOS expression (skeletal muscle tissue; methamphetamine treated mice): no change
- CBS gene expression (skeletal muscle tissue; [13]): no significant changes
- CSE gene expression (skeletal muscle tissue; [13]): significantly decreased
- ICAM-1 expression (skeletal muscle tissue; [14]): concomitant increase
- VCAM-1 expression (skeletal muscle tissue; [14]): concomitant increase
- NOx4 expression (skeletal muscle tissue; skeletal muscles, methamphetamine treatment): marginal increase
- acid-labile sulfide levels (H2S [7]): decrease
- plasma S-nitrosothiol (bound pool) (NO [8]; [11]): decreased
- plasma free nitrite (NO [8]; [11]): decreased
- plasma total NO levels (NO [8]; [11]): two-fold reduction
- skeletal muscle total NO (NO [8]; methamphetamine treated mice vs saline): significantly reduced
- CSE enzyme activity (CSE [9]): substantially decreased
- CSE activity (CSE [10]): significant decrease
- DHE fluorescence (oxidative stress) (superoxide): significant increase
